Assay results from patent US9820996B2, “Preparation method for antithyroid ointment for external application” (priority 2014, dated 2017).
“Also recorded” adds a separate entry of the source.

Tested on: hyperthyroidism patients
Experiment: Typical cases of clinical treatment (case reports)
Assay type: in vivo, human
Conditions: propylthiouracil and methimazole taken successively
Description: The present example includes following typical cases of clinical treatment.

| SMILES | adverse reaction that led to discontinuing oral treatment (patient history) |
| --- | --- |
| CCCc1cc(=O)[nH]c(=S)[nH]1 [propylthiouracil] | severe drug-induced liver damage; also recorded: severe neutropenia; also recorded: acute urticaria |
| Cn1cc[nH]c1=S [methimazole] | severe drug-induced liver damage; also recorded: severe neutropenia; also recorded: acute urticaria |
